Laboratory results taken from patent publication US4761483A, “Chloro-substituted ketone imidazole derivatives” (G. D. Searle & Co., priority 1985, dated 1988).
In brackets after ≈: the same amount, converted by molar mass. Several values for one entry are separate records, joined by “and”; a condition that tells them apart may be missing. Equal values may be shown once. Read-outs that look alike come from different tables or passages of the source.

Tests used:
B. fragilis NCTC 9344 = assay: anti-anaerobic activity, MIC/MBC in 96 well microtitre plates, strain C; type: cell-based, Bacteroides fragilis; conditions: for MBC / MIC: Bacteroides fragilis, NCTC9344, 48 h; for MBC: read-out: MBC (Minimum Bactericidal Concentration); for MIC: read-out: MIC (Minimum Inhibitory Concentration)
B. fragilis NCTC 9343 = assay: anti-anaerobic activity, MIC/MBC in 96 well microtitre plates, strain B; type: cell-based, Bacteroides fragilis; conditions: for MIC / MBC: Bacteroides fragilis; for MIC: read-out: MIC (Minimum Inhibitory Concentration); for MBC: 99.9% reduction in viable count after 48 hours
[1] = system: B. fragilis MZ-R ATCC 11295; assay: anti-anaerobic activity, MIC/MBC in 96 well microtitre plates, strain D; type: cell-based, Bacteroides fragilis; conditions: for MBC / MIC: Bacteroides fragilis, ATCC11295, 48 h; for MBC: read-out: MBC (Minimum Bactericidal Concentration); for MIC: read-out: MIC (Minimum Inhibitory Concentration)
Experimental: The screening panel utilized in the Example consisted of 5 strains of Bacteroides fragilis. All assays were carried out in 96 well microtitre plates. If an isolate was obtained from either a culture collection or clinical source, the isolate was immediately innoculated into Wilkens-Chalgren broth (Oxoid) and incubated at 37° C. in an anaerobic chamber in an atmosphere of 85% nitrogen, 10% carbon dioxide, and 5% hydrogen for 48 hours. At the end of this time, the viable count was about […] broth. A 1 ml aliquot of each culture was placed in an ampoule and quick frozen in acetone-dry ice mixture and stored in liquid nitrogen. When an inoculum was utilized in an assay, one of the ampoules was thawed and diluted with fresh broth to yield a suspension having a count of 5×10^5 organisms/ml. A 100 μl aliquot of the suspension was inoculated into each well of the microtitre plate. A 2 mg sample of the test compound wa dissolved in 0.2 ml of a suitable solvent such as dimethylsulfoxide, polyethylene glycol 200 or methanol. The solution was then diluted with 4.8 ml of water to yield a solution having a concentration of 400 mg/L. Doubling dilutions of this stock were prepared to give a range of concentrations from 1.6-200 mg/L. 100 μl of each concentration were then placed in the wells of the microtitre plate containing the inoculum, to produce a final concentration range of 0.8-100 mg/l. Metronidazole was employed as a positive control and a solvent/water mixture was employed as a negative control. After addition of the test solution the final inoculum level was 10^5 cells/ml. The plates were incubated for 48 hours at 37° C. in the anaerobic chamber. The Minimum Inhibitory Concentration (MIC) was read visually. The MIC is defined as the lowest concentration at which there is no detectable growth. The Minimum Bactericidal Concentration (MBC) was determined by taking a 50 μl aliquot from each well and placing it in fresh medium. […] The strains of Bacteroides fragilis utilized in the above procedure are identified by letter in accordance with the following legend: |D B. fragilis MZ-R ATCC 11295

B. fragilis NCTC 10581 = assay: anti-anaerobic activity, MIC/MBC in 96 well microtitre plates, strain A; type: cell-based, Bacteroides fragilis; conditions: for MBC / MIC: Bacteroides fragilis, NCTC10581, 48 h; for MBC: read-out: MBC (Minimum Bactericidal Concentration); for MIC: read-out: MIC (Minimum Inhibitory Concentration)
B. fragilis WS-1 = assay: anti-anaerobic activity, MIC/MBC in 96 well microtitre plates, strain E; type: cell-based; conditions: Bacteroides fragilis; for MIC: 48 hours at 37° C., anaerobic chamber, 10^5 cells/ml, read-out: MIC (Minimum Inhibitory Concentration); for MBC: 99.9% reduction in viable count after 48 hours
[2] = system: Propionibacterium acnes NCTC 737; assay: anti-anaerobic activity, MIC (procedures of Example 13); type: cell-based; conditions: Cutibacterium acnes, NCTC737, procedures of Example 13 (there mg/L)
[3] = system: Clostridium perfringens NCTC 8237; assay: microbe, parasite or virus in culture; type: cell-based; conditions: NCTC8237
[4] = system: Fusobacterium necrophorum ATCC 11295; assay: anti-anaerobic activity, MIC (procedures of Example 13); type: cell-based; conditions: ATCC11295, procedures of Example 13 (there mg/L)
[5] = system: Peptostreptococcus anaerobicus ATCC 27337; assay: as above; type: cell-based; conditions: Peptostreptococcus, ATCC27337
[6] = system: Clostridium perfringens NCTC 523; assay: microbe, parasite or virus in culture; type: cell-based; conditions: NCTC523
[7] = system: Peptococcus prevotti ATCC 9321; assay: anti-anaerobic activity, MIC (procedures of Example 13); type: cell-based
[8] = system: Propionibacterium acnes NCTC 7337; assay: as above; type: cell-based; conditions: Cutibacterium acnes, NCTC7337, procedures of Example 13 (there mg/L)
[9] = system: Campylobacter fetus ATCC 29428; assay: as above; type: cell-based; conditions: ATCC29428, procedures of Example 13 (there mg/L)
[10] = system: Peptococcus magnus ATCC 29328; assay: as above; type: cell-based; conditions: Finegoldia magna, ATCC29328
[11] = strain C, 99.9% reduction in viable count after 48 hours
[12] = strain C, 48 hours at 37° C., anaerobic chamber, 10^5 cells/ml
[13] = NCTC9343, 48 h, strain B, 48 hours at 37° C., anaerobic chamber, 10^5 cells/ml
[14] = NCTC9343, strain B, read-out: MBC (Minimum Bactericidal Concentration)
[15] = 99.9% reduction in viable count after 48 hours
[16] = 48 hours at 37° C., anaerobic chamber, 10^5 cells/ml
[17] = strain A, 99.9% reduction in viable count after 48 hours
[18] = strain A, 48 hours at 37° C., anaerobic chamber, 10^5 cells/ml
[19] = WS1, strain E, read-out: MBC (Minimum Bactericidal Concentration)

Row | Structure (SMILES) | MBC (B. fragilis NCTC 9344; [11]) [µg/mL] | MIC (B. fragilis NCTC 9344; [12]) [µg/mL] | MIC (B. fragilis NCTC 9343; [13]) [µg/mL] | MBC (B. fragilis NCTC 9343; [14]) [µg/mL] | MBC [1, 15] [µg/mL] | MIC [1, 16] [µg/mL] | MBC (B. fragilis NCTC 10581; [17]) [µg/mL] | MIC (B. fragilis NCTC 10581; [18]) [µg/mL] | MIC (B. fragilis WS-1; WS1, 48 h, strain E) [µg/mL] | MBC (B. fragilis WS-1; [19]) [µg/mL] | other results
1 | C[C@H](NC(=O)[C@H](Cc1cn(CC(Cl)(C(=O)c2ccc(Cl)cc2Cl)c2ccccc2)cn1)NC(=O)OC(C)(C)C)C(=O)OC(C)(C)C (stereo partly drawn) [Example 9, N-[1-[2-Chloro-3-(2,4-dichlorophenyl)-3-oxo-2-phenylpropyl]-N-[(1,1-dimethylethoxy)carbonyl]-L-histidyl]-L-alanine 1,1-dimethylethyl ester] | 6.2 (≈ 8.93 µM) | 6.2 (≈ 8.93 µM) | 3.1 (≈ 4.47 µM) | 3.1 (≈ 4.47 µM) | 0.8 (≈ 1.15 µM) | 0.8 (≈ 1.15 µM) | 6.2 (≈ 8.93 µM) | 3.1 (≈ 4.47 µM) | 12.5 (≈ 18 µM) | 12.5 (≈ 18 µM) | –
2 | C[C@H](NC(=O)[C@@H](N)Cc1cn(CC(Cl)(C(=O)c2ccc(Cl)cc2Cl)c2ccccc2)cn1)C(=O)O (stereo partly drawn) [Example 10, N-[1-[2-Chloro-3-(2,4-dichlorophenyl)-3-oxo-2-phenylpropyl]-L-histidyl]-L-alanine] | 6.2 (≈ 11.5 µM) | 3.1 (≈ 5.76 µM) | 3.1 (≈ 5.76 µM) | 3.1 (≈ 5.76 µM) | 0.8 (≈ 1.49 µM) | 0.8 (≈ 1.49 µM) | 3.1 (≈ 5.76 µM) | 3.1 (≈ 5.76 µM) | 6.2 (≈ 11.5 µM) | 6.2 (≈ 11.5 µM) | –
3 | C[C@H](NC(=O)[C@@H](N)CCCCNC(=O)/C=C/c1cn(CC(Cl)(C(=O)c2ccc(Cl)cc2Cl)c2ccccc2)cn1)C(=O)O (stereo partly drawn) [Example 12, N-[N^6-[E-3-[1-[2-Chloro-3-(2,4-dichlorophenyl)-3-oxo-2-phenylpropyl]imidazol-4-yl]propenoyl]-L-lysinyl]-L-alanine] | 3.1 (≈ 4.78 µM) | 3.1 (≈ 4.78 µM) | 1.5 (≈ 2.31 µM) | 1.5 (≈ 2.31 µM) | 0.8 (≈ 1.23 µM) | 0.8 (≈ 1.23 µM) | 3.1 (≈ 4.78 µM) | 1.5 (≈ 2.31 µM) | 6.2 (≈ 9.55 µM) | 6.2 (≈ 9.55 µM) | –
4 | Cc1ncc([N+](=O)[O-])n1CCO [Metronidazole, reference compound] | 0.8 (≈ 4.67 µM) | 0.8 (≈ 4.67 µM) | 0.8 (≈ 4.67 µM) | 0.8 (≈ 4.67 µM) | 6.2 (≈ 36.2 µM) | 6.2 (≈ 36.2 µM) | 0.8 (≈ 4.67 µM) | 0.8 (≈ 4.67 µM) | – | 1.5 (≈ 8.76 µM) | MIC [2]: > 100 µg/mL; MBC (B. fragilis NCTC 9344): 1.2 µg/mL (≈ 7.01 µM); MBC (Minimum Bactericidal Concentration) (B. fragilis NCTC 9344; [11]): 0.6 µg/mL (≈ 3.51 µM); MIC (Minimum Inhibitory Concentration) (B. fragilis NCTC 9344; [12]): 0.6 µg/mL and 1.2 µg/mL; MIC [3]: 0.8 µg/mL (≈ 4.67 µM); MIC [4]: 6.2 µg/mL (≈ 36.2 µM); MBC (B. fragilis NCTC 9343; NCTC9343, 48 h, read-out: MBC (Minimum Bactericidal Concentration), strain B): 1.2 µg/mL (≈ 7.01 µM); MIC (Minimum Inhibitory Concentration) (B. fragilis NCTC 9343; strain B, 48 hours at 37° C., anaerobic chamber, 10^5 cells/ml): 1.2 µg/mL and 0.6 µg/mL; MIC [5]: 0.8 µg/mL (≈ 4.67 µM); MIC [6]: 0.8 µg/mL (≈ 4.67 µM); MIC [7]: 1.5 µg/mL (≈ 8.76 µM); MBC (Minimum Bactericidal Concentration) [1, 15]: 10.0 µg/mL (≈ 58.4 µM); MIC (Minimum Inhibitory Concentration) [1, 16]: 10.0 µg/mL (≈ 58.4 µM); MIC [8]: > 100 µg/mL; MIC [9]: > 100 µg/mL; MBC (B. fragilis NCTC 10581): 1.2 µg/mL (≈ 7.01 µM); MBC (Minimum Bactericidal Concentration) (B. fragilis NCTC 10581; [17]): 0.6 µg/mL (≈ 3.51 µM); MIC (Minimum Inhibitory Concentration) (B. fragilis NCTC 10581; [18]): 0.6 µg/mL (≈ 3.51 µM); MBC (B. fragilis WS-1; WS1, 48 h, read-out: MBC (Minimum Bactericidal Concentration), strain E): 1.2 µg/mL (≈ 7.01 µM); MIC [10]: 0.8 µg/mL (≈ 4.67 µM)
